Results on one compound are retold here after PMC5218480 (PLoS ONE, 2017).

The assay has as its system MV-4-11 cells. Description: Gene expression microarray analysis (Affymetrix PrimeView) and GSEA. It counts as cell-based, human. On the set-up: RFU PODN (11730768_x_at) / Fold change /veh PODN (11730768_x_at) / RFU LINC00158 (11744669_a_at) / Fold change /veh LINC00158 (11744669_a_at) / RFU DUSP10 (11751237_a_at) / Fold change /veh DUSP10 (11751237_a_at) / RFU ID3 (11757404_x_at) / Fold change /veh ID3 (11757404_x_at) / RFU PLEKHG5 (11737974_s_at) / Fold change /veh PLEKHG5 (11737974_s_at) / RFU LRRC4B (11730491_at) / Fold change /veh LRRC4B (11730491_at) / RFU GIMAP4 (11747438_a_at) / Fold change /veh GIMAP4 (11747438_a_at) / RFU KRT8 (11758183_x_at) / Fold change /veh KRT8 (11758183_x_at) / RFU CNN1 (11734310_a_at) / Fold change /veh CNN1 (11734310_a_at) / RFU VPS37D (11726825_at) / Fold change /veh VPS37D (11726825_at) / RFU C10orf10 (11716522_x_at) / Fold change /veh C10orf10 (11716522_x_at) / RFU KIR2DL2 /// KIR2DL4 /// KIR2DL5A /// KIR2DL5B /// KIR2DS1 /// KIR2DS2 /// KIR2DS3 /// KIR2DS4 /// KIR3DL3 /// KIR3DL3 /// KIR3DS1 (11738374_at) / Fold change /veh KIR2DL2 /// KIR2DL4 /// KIR2DL5A /// KIR2DL5B /// KIR2DS1 /// KIR2DS2 /// KIR2DS3 /// KIR2DS4 /// KIR3DL3 /// KIR3DL3 /// KIR3DS1 (11738374_at) / RFU C1QL1 (11718748_at) / Fold change /veh C1QL1 (11718748_at) / RFU TMPRSS4 (11747572_a_at) / Fold change /veh TMPRSS4 (11747572_a_at) / RFU HAMP (11756126_x_at) / Fold change /veh HAMP (11756126_x_at) / RFU RNFT2 (11725882_a_at) / Fold change /veh RNFT2 (11725882_a_at) / RFU NR4A2 (11747474_a_at) / Fold change /veh NR4A2 (11747474_a_at) / RFU ABCC12 (11746883_a_at) / Fold change /veh ABCC12 (11746883_a_at) / RFU TMEM136 (11760407_x_at) / Fold change /veh TMEM136 (11760407_x_at) / RFU CLDN22 /// WWC2 (11732394_at) / Fold change /veh CLDN22 /// WWC2 (11732394_at) / RFU HLA-DPB1 (11760878_x_at) / Fold change /veh HLA-DPB1 (11760878_x_at) / RFU SPINT1 (11716480_a_at) / Fold change /veh SPINT1 (11716480_a_at) / RFU GAP43 (11754022_s_at) / Fold change /veh GAP43 (11754022_s_at) / RFU A4GNT (11735810_at) / Fold change /veh A4GNT (11735810_at) / RFU PRB3 (11715151_x_at) / Fold change /veh PRB3 (11715151_x_at) / RFU TUBB4B (11761932_at) / Fold change /veh TUBB4B (11761932_at) / RFU CAPN14 (11732068_a_at) / Fold change /veh CAPN14 (11732068_a_at) / RFU TMCC2 (11721928_a_at) / Fold change /veh TMCC2 (11721928_a_at) / RFU IRGQ (11745062_a_at) / Fold change /veh IRGQ (11745062_a_at) / RFU FAM174B (11720279_a_at) / Fold change /veh FAM174B (11720279_a_at) / RFU TMPRSS4 (11748680_a_at) / Fold change /veh TMPRSS4 (11748680_a_at) / RFU FAM212B (11763350_a_at) / Fold change /veh FAM212B (11763350_a_at) / RFU PLEKHG5 (11743358_a_at) / Fold change /veh PLEKHG5 (11743358_a_at) / RFU ZSCAN30 (11745921_a_at) / Fold change /veh ZSCAN30 (11745921_a_at) / RFU CMKLR1 (11741424_a_at) / Fold change /veh CMKLR1 (11741424_a_at) / RFU LOC101060620 /// MAPK8IP1 (11723275_at) / Fold change /veh LOC101060620 /// MAPK8IP1 (11723275_at) / RFU SPTSSB (11747773_x_at) / Fold change /veh SPTSSB (11747773_x_at) / RFU PRSS12 (11739890_at) / Fold change /veh PRSS12 (11739890_at) / RFU BIN1 (11741810_x_at) / Fold change /veh BIN1 (11741810_x_at) / RFU WNT11 (11732464_a_at) / Fold change /veh WNT11 (11732464_a_at) / RFU C10orf10 (11716521_a_at) / Fold change /veh C10orf10 (11716521_a_at) / RFU C5orf56 (11738089_at) / Fold change /veh C5orf56 (11738089_at) / RFU CYB561 (11721691_x_at) / Fold change /veh CYB561 (11721691_x_at) / RFU ANKRD19P (11752326_a_at) / Fold change /veh ANKRD19P (11752326_a_at) / RFU OR2T12 /// OR2T33 /// OR2T8 (11738714_s_at) / Fold change /veh OR2T12 /// OR2T33 /// OR2T8 (11738714_s_at) / RFU VCAN (11748164_a_at) / Fold change /veh VCAN (11748164_a_at) / RFU JSRP1 (11732532_at) / Fold change /veh JSRP1 (11732532_at) / RFU KRTAP10-11 (11738290_x_at) / Fold change /veh KRTAP10-11 (11738290_x_at) / RFU MYO3A (11730013_a_at) / Fold change /veh MYO3A (11730013_a_at) / RFU EBF3 (11725865_a_at) / Fold change /veh EBF3 (11725865_a_at) / RFU CAMK2N1 (11719241_x_at) / Fold change /veh CAMK2N1 (11719241_x_at) / RFU C5orf56 (11738088_a_at) / Fold change /veh C5orf56 (11738088_a_at) / RFU OLFML3 (11715873_a_at) / Fold change /veh OLFML3 (11715873_a_at) / RFU LOC100653217 /// NTM (11731650_a_at) / Fold change /veh LOC100653217 /// NTM (11731650_a_at) / RFU MAPK11 (11762145_a_at) / Fold change /veh MAPK11 (11762145_a_at) / RFU FIZ1 (11724087_x_at) / Fold change /veh FIZ1 (11724087_x_at) / RFU OASL (11726364_x_at) / Fold change /veh OASL (11726364_x_at) / RFU SOX15 (11748057_x_at) / Fold change /veh SOX15 (11748057_x_at) / RFU CD79A (11719716_a_at) / Fold change /veh CD79A (11719716_a_at) / RFU HIST1H1D (11736915_at) / Fold change /veh HIST1H1D (11736915_at) / RFU CASKIN2 (11723855_a_at) / Fold change /veh CASKIN2 (11723855_a_at) / RFU LOC730098 (11760151_x_at) / Fold change /veh LOC730098 (11760151_x_at) / RFU OR4N2 (11742367_at) / Fold change /veh OR4N2 (11742367_at) / RFU PRRT2 (11749266_a_at) / Fold change /veh PRRT2 (11749266_a_at) / RFU SNX32 (11753110_a_at) / Fold change /veh SNX32 (11753110_a_at) / RFU CDHR5 (11726645_a_at) / Fold change /veh CDHR5 (11726645_a_at) / RFU RCAN1 (11760418_a_at) / Fold change /veh RCAN1 (11760418_a_at) / RFU FAM167A (11723789_a_at) / Fold change /veh FAM167A (11723789_a_at) / RFU FAM26E (11764081_at) / Fold change /veh FAM26E (11764081_at) / RFU ISYNA1 (11749810_s_at) / Fold change /veh ISYNA1 (11749810_s_at) / RFU ACY1 (11761880_at) / Fold change /veh ACY1 (11761880_at) / RFU 11764098_at / Fold change /veh 11764098_at / RFU SAMD14 (11745864_x_at) / Fold change /veh SAMD14 (11745864_x_at) / RFU NPB (11741838_a_at) / Fold change /veh NPB (11741838_a_at) / RFU TMPRSS6 (11731388_a_at) / Fold change /veh TMPRSS6 (11731388_a_at) / RFU KRTAP10-2 (11738614_at) / Fold change /veh KRTAP10-2 (11738614_at) / RFU ARHGAP8 /// PRR5-ARHGAP8 (11727945_x_at) / Fold change /veh ARHGAP8 /// PRR5-ARHGAP8 (11727945_x_at) / RFU KRTAP5-7 /// NADSYN1 (11734609_at) / Fold change /veh KRTAP5-7 /// NADSYN1 (11734609_at) / RFU RASL12 (11751679_a_at) / Fold change /veh RASL12 (11751679_a_at) / RFU CDKN2B (11736163_a_at) / Fold change /veh CDKN2B (11736163_a_at) / RFU PRF1 (11729649_at) / Fold change /veh PRF1 (11729649_at) / RFU, ZNF638 /// ZNF638-IT1 / Fold change vs veh, ZNF638 /// ZNF638-IT1 / RFU, PANK3 / Fold change vs veh, PANK3 / RFU, SH3YL1 / Fold change vs veh, SH3YL1 / RFU, ZEB2 / Fold change vs veh, ZEB2 / RFU, NRIP1 / Fold change vs veh, NRIP1 / RFU, PTTG1IP / Fold change vs veh, PTTG1IP / RFU, CAPN2 / Fold change vs veh, CAPN2 / RFU, MED14 / Fold change vs veh, MED14 / RFU, SNORA58 / Fold change vs veh, SNORA58 / RFU, C1orf63 / Fold change vs veh, C1orf63 / RFU, LRRFIP1 / Fold change vs veh, LRRFIP1 / RFU, NDUFAF7 / Fold change vs veh, NDUFAF7 / RFU, SLC12A2 / Fold change vs veh, SLC12A2 / RFU, IBTK / Fold change vs veh, IBTK / RFU, ESF1 / Fold change vs veh, ESF1 / Fold change vs veh, TMEM50B / RFU, TAOK1 / Fold change vs veh, TAOK1 / RFU, ACBD3 / Fold change vs veh, ACBD3 / RFU, TMA16 / Fold change vs veh, TMA16 / RFU, RWDD3 / Fold change vs veh, RWDD3 / RFU, BCAT1 / Fold change vs veh, BCAT1 / RFU, EDEM3 / Fold change vs veh, EDEM3 / RFU, TMEM33 / Fold change vs veh, TMEM33 / RFU, WDR75 / Fold change vs veh, WDR75 / RFU, AHCTF1 / Fold change vs veh, AHCTF1 / RFU, TFRC / Fold change vs veh, TFRC / RFU, ZDHHC17 / Fold change vs veh, ZDHHC17 / RFU, NOM1 / Fold change vs veh, NOM1 / RFU, ARL8B / Fold change vs veh, ARL8B / RFU, ZBTB11 / Fold change vs veh, ZBTB11 / RFU, TAMM41 / Fold change vs veh, TAMM41 / RFU, KIAA1704 /// LOC100996395 / Fold change vs veh, KIAA1704 /// LOC100996395 / RFU, ING1 / Fold change vs veh, ING1 / RFU, TRMT61B / Fold change vs veh, TRMT61B / RFU, FUBP3 / Fold change vs veh, FUBP3 / RFU, TP53 / Fold change vs veh, TP53 / RFU, TNKS2 / Fold change vs veh, TNKS2 / RFU, ZFP14 / Fold change vs veh, ZFP14 / RFU, ACTR2 / Fold change vs veh, ACTR2 / RFU, PPP3R1 / Fold change vs veh, PPP3R1 / RFU, PIK3R1 / Fold change vs veh, PIK3R1 / RFU, HNRNPA1 / Fold change vs veh, HNRNPA1 / RFU, RNF170 / Fold change vs veh, RNF170 / RFU, ZNF28 / Fold change vs veh, ZNF28 / RFU, RNGTT / Fold change vs veh, RNGTT / RFU, OGT / Fold change vs veh, OGT / RFU, BRD1 / Fold change vs veh, BRD1 / RFU, MARS / Fold change vs veh, MARS / RFU, ZNF655 / Fold change vs veh, ZNF655 / RFU, FAHD1 / Fold change vs veh, FAHD1 / RFU, BDP1 / Fold change vs veh, BDP1 / RFU, LRRCC1 / Fold change vs veh, LRRCC1 / RFU, ARID1A / Fold change vs veh, ARID1A / RFU, ZNF146 / Fold change vs veh, ZNF146 / RFU, ZNF330 / Fold change vs veh, ZNF330 / RFU, GPN3 / Fold change vs veh, GPN3 / RFU, C9orf123 / Fold change vs veh, C9orf123 / RFU, N4BP2L2 / Fold change vs veh, N4BP2L2 / RFU, ARFIP1 / Fold change vs veh, ARFIP1 / RFU, FAM179B / Fold change vs veh, FAM179B / RFU, BCL10 / Fold change vs veh, BCL10 / RFU, UHRF1BP1L / Fold change vs veh, UHRF1BP1L / RFU, BET1 / Fold change vs veh, BET1 / RFU, CNOT2 / Fold change vs veh, CNOT2 / RFU, ZNF268 / Fold change vs veh, ZNF268 / Fold change vs veh, ZNF507 / RFU, DGCR2 / Fold change vs veh, DGCR2 / RFU, WDSUB1 / Fold change vs veh, WDSUB1 / Fold change vs veh, HSP90B1 /// MIR3652 / RFU, ADSS / Fold change vs veh, ADSS / RFU, GK / Fold change vs veh, GK / RFU, ZNF148 / Fold change vs veh, ZNF148 / RFU, TAF9 / Fold change vs veh, TAF9 / RFU, SLC1A5 / Fold change vs veh, SLC1A5 / RFU, SLMO2 / Fold change vs veh, SLMO2 / RFU, ABCC4 / Fold change vs veh, ABCC4 / RFU, LOC101060439 /// RAP1B / Fold change vs veh, LOC101060439 /// RAP1B / RFU, RFX7 / Fold change vs veh, RFX7 / RFU, GTPBP10 / Fold change vs veh, GTPBP10 / RFU, CNEP1R1 / Fold change vs veh, CNEP1R1 / RFU, BIVM-ERCC5 /// ERCC5 / Fold change vs veh, BIVM-ERCC5 /// ERCC5 / RFU, ILF3 / Fold change vs veh, ILF3 / RFU 11762660_at / Fold change /veh 11762660_at / RFU VCAN (11757783_s_at) / Fold change /veh VCAN (11757783_s_at) / RFU DDX43 (11728927_at) / Fold change /veh DDX43 (11728927_at) / RFU KRT8 (11758188_x_at) / Fold change /veh KRT8 (11758188_x_at) / RFU NKD1 (11759106_at) / Fold change /veh NKD1 (11759106_at) / RFU SRD5A1 (11742802_a_at) / Fold change /veh SRD5A1 (11742802_a_at) / RFU TPSAB1 /// TPSB2 (11721975_s_at) / Fold change /veh TPSAB1 /// TPSB2 (11721975_s_at) / RFU GSTM3 (11746129_a_at) / Fold change /veh GSTM3 (11746129_a_at) / RFU IL23R (11737362_x_at) / Fold change /veh IL23R (11737362_x_at) / RFU TMEM51 (11727254_a_at) / Fold change /veh TMEM51 (11727254_a_at) / RFU PIWIL2 (11732686_x_at) / Fold change /veh PIWIL2 (11732686_x_at) / RFU ORM1 (11744905_x_at) / Fold change /veh ORM1 (11744905_x_at) / RFU CCDC152 (11743942_at) / Fold change /veh CCDC152 (11743942_at) / RFU ECM1 (11717891_a_at) / Fold change /veh ECM1 (11717891_a_at) / RFU IL23R (11748794_a_at) / Fold change /veh IL23R (11748794_a_at) / RFU TNFAIP8L3 (11732012_x_at) / Fold change /veh TNFAIP8L3 (11732012_x_at) / RFU MBOAT4 (11741988_at) / Fold change /veh MBOAT4 (11741988_at) / RFU 11764193_at / Fold change /veh 11764193_at / RFU TMEM53 (11763286_at) / Fold change /veh TMEM53 (11763286_at) / RFU MAGEB2 (11727129_at) / Fold change /veh MAGEB2 (11727129_at) / RFU TMEM200A (11744735_a_at) / Fold change /veh TMEM200A (11744735_a_at) / RFU CCDC152 (11751479_a_at) / Fold change /veh CCDC152 (11751479_a_at) / RFU FAM211A (11726209_a_at) / Fold change /veh FAM211A (11726209_a_at) / RFU RGS16 (11746705_a_at) / Fold change /veh RGS16 (11746705_a_at) / RFU VCAN (11755009_s_at) / Fold change /veh VCAN (11755009_s_at) / RFU RHOB (11743442_s_at) / Fold change /veh RHOB (11743442_s_at) / RFU RGS16 (11720943_a_at) / Fold change /veh RGS16 (11720943_a_at) / RFU RGS16 (11720944_at) / Fold change /veh RGS16 (11720944_at) / RFU, VPS4B / Fold change vs veh, VPS4B / RFU, CREB1 / Fold change vs veh, CREB1 / RFU, DNAJC13 / Fold change vs veh, DNAJC13 / RFU, GNAQ / Fold change vs veh, GNAQ / RFU, CDK5R1 / Fold change vs veh, CDK5R1 / RFU, ZRANB3 / Fold change vs veh, ZRANB3 / RFU, CUL4A / Fold change vs veh, CUL4A / RFU, CCNY / Fold change vs veh, CCNY / RFU, UFL1 / Fold change vs veh, UFL1 / RFU, COG3 / Fold change vs veh, COG3 / RFU, DIAPH2 / Fold change vs veh, DIAPH2 / RFU, SKA2 / Fold change vs veh, SKA2 / RFU, AFF3 / Fold change vs veh, AFF3 / RFU, LMF1 / Fold change vs veh, LMF1 / RFU, IPO11 / Fold change vs veh, IPO11 / RFU, DFFB / Fold change vs veh, DFFB / RFU, FOXP1 / Fold change vs veh, FOXP1 / RFU, CARD8 / Fold change vs veh, CARD8 / RFU, STRN3 / Fold change vs veh, STRN3 / RFU, ADK / Fold change vs veh, ADK / RFU, RASSF2 / Fold change vs veh, RASSF2 / RFU, WIPF1 / Fold change vs veh, WIPF1 / RFU, LARP1B / Fold change vs veh, LARP1B / RFU, RASA1 / Fold change vs veh, RASA1 / RFU, RB1 / Fold change vs veh, RB1 / RFU, PPFIA1 / Fold change vs veh, PPFIA1 / RFU, MAT2A / Fold change vs veh, MAT2A / RFU, CCT5 / Fold change vs veh, CCT5 / RFU, WDR92 / Fold change vs veh, WDR92 / RFU, CUX1 / Fold change vs veh, CUX1 / RFU, TTC7A / Fold change vs veh, TTC7A / RFU, TMEM135 / Fold change vs veh, TMEM135 / RFU, DEPTOR / Fold change vs veh, DEPTOR / RFU, CPM / Fold change vs veh, CPM / RFU, DNAJB6 / Fold change vs veh, DNAJB6 / RFU, CACNA2D3 / Fold change vs veh, CACNA2D3 / RFU, DTX4 / Fold change vs veh, DTX4 / RFU, TFCP2 / Fold change vs veh, TFCP2 / RFU, GMCL1 /// GMCL1P1 / Fold change vs veh, GMCL1 /// GMCL1P1 / RFU, AEBP2 / Fold change vs veh, AEBP2 / RFU, SNHG1 /// SNORD22 /// SNORD25 /// SNORD26 /// SNORD27 /// SNORD28 /// SNORD29 /// SNORD31 / Fold change vs veh, SNHG1 /// SNORD22 /// SNORD25 /// SNORD26 /// SNORD27 /// SNORD28 /// SNORD29 /// SNORD31 / Fold change (Aza/veh), C12orf56 (ProbeSet 11735607_a_at) / Fold change (ACY-1035/veh), C12orf56 (ProbeSet 11735607_a_at) / Fold change (Aza/veh), FGFR1OP (ProbeSet 11751329_s_at) / Fold change (ACY-1035/veh), FGFR1OP (ProbeSet 11751329_s_at) / Fold change (Aza/veh), VPS36 (ProbeSet 11739960_a_at) / Fold change (ACY-1035/veh), VPS36 (ProbeSet 11739960_a_at) / RFU SYPL1 (11715823_x_at) / Fold change /veh SYPL1 (11715823_x_at) / RFU IGFBP7 (11715501_s_at) / Fold change /veh IGFBP7 (11715501_s_at) / RFU REEP3 (11722064_at) / Fold change /veh REEP3 (11722064_at) / RFU IGLL1 (11728026_x_at) / Fold change /veh IGLL1 (11728026_x_at): dose or concentration left out as unconfirmed. The conditions noted are these: MV-4-11 cells, 48 hours.

Each structure is given as a SMILES string.

Turning to `Nc1ncn([C@@H]2O[C@H](CO)[C@@H](O)[C@H]2O)c(=O)n1` [azacitidine], the “RFU OLFML3 (11715873_a_at)” value was determined as 10.99 RFU.
